Measurements reported in patent US20220288051A1, “METHODS FOR TREATING CANCER USING SERIAL ADMINISTRATION OF E3 UBIQUITIN LIGASE DEGRADERS” (Dana-Farber Cancer Institute, Inc., priority 2019, published 2022).

What was measured:
MM.1S cells = test: CTG viability of CRISPR-edited MM.1S pools tolerant to bortezomib or JQ1; format: cell-based, human; settings: after genome-scale gene editing and treatment with JQ1 (500 nM) or bortezomib (25 nM)
Protocol: Cell viability and growth of human MM cell lines were assessed using CellTitre-Glo (CTG) assay (Promega, Madison, Wis.) per kit instructions, or CS-BLI as described (Delmore et al., 2011). Briefly, cells were seeded (5×10^3 cells/well) into 96- or 384-well opaque plates, in supplemented media (40 or 50 uL) and incubated for 24 h prior to addition of drug. For co-culture experiments, HS27A cells were pre-seeded (5×10^3 cells/well) into each well in media prior (24 h) to the addition of MM cells. At each time point (24 h, 48 h, and/or 72 h) CTG reagent (10% volume) was added to each well, and plates were read using a microplate reader (BioTek Synergy 2, BioTek, Winooski, Va.).
(§1) iii. […] Following treatments, all cells were serially cultured without drug and allowed to regrow for as long as required to enable reseeding (60×10^6 cells per flask, 100 mL) and retreatment with individual drugs while maintaining ˜1000× coverage throughout. Concomitant with retreatment, remaining cells were frozen (−80° C.; 20% FBS/DMSO) for later analysis or assessed for drug resistance/sensitivity using CTG assays. Between treatments, and in order to maintain the health of cultures, dead cells were periodically removed using Ficoll centrifugation (1,500 rpm for 10-20 min). For all CRISPR drug treatment experiments, aliquots of MM.1S-Cas9+ cells transduced with the GeCKO(Sanjana et al., 2014; Shalem et al., 2014) or Brunello (Doench et al., 2016) sgRNA libraries were frozen immediately prior to experimentation to determine the baseline distribution of sgRNAs in the cell population.

MM = settings: cited from earlier work
c-Myc = test: Immunoblotting of degronimid-treated MM.1S cells: c-Myc; format: cell-based, human; settings: 0.01-1 μM, 4 h
Protocol: MM.1S cells were seeded in 6-well plates at 3×10^6 cells/well (˜24 h prior to addition of drug). […] Cell pellets were thawed on ice, lysed using RIPA buffer (ThermoFisher) with protease/phosphatase inhibitor cocktail (Cell Signal Technology, Danvers, Mass.) by incubating on ice 30 min. The lysates were clarified by spinning at 10,000 g for 10 min at 4° C. and the concentration of the lysate was determined using BCA protocol (ThermoFisher). Samples were prepared for Western blot using LDS sample buffer (NuPage, Invitrogen, Carlsbad, Calif., USA) with sample reducing agent (NuPage, Invitrogen) and heated to 95° C. for 5 min. Samples were loaded (20 ug/sample) into Tris-acetate or Bis-Tris gels (NuPage, Invitrogen) and run as per kit instructions using appropriate running buffers. Gels were transferred as described (Matthews et al., 2015) onto PVDF membrane using SDS-based transfer buffer (NuPage, Invitrogen). Membranes were blocked (5% skim milk; or 5% bovine serum albumin in TBS-T) for at least 30 min then probed with primary antibodies overnight (4° C.). […] Each protein of interest (BRD2, BRD3, BRD4, c-myc and CDK9) was assessed in a separate gel and corresponding membrane (which was simultaneously incubated with antibodies for both the target protein of interest and GAPDH, to provide a loading control within the same blot). […]

MM.1S-Cas9+ cells = test: Genome-scale CRISPR/Cas9 gene editing (LOF) resistance screens; format: cell-based, human; settings: long-term treatment; NGS of sgRNAs
Protocol: MM.1S cells transduced with lentiviral construct for SpCas9 were kindly provided from Quinlan Sievers (Ebert Lab, BWH/DFCI). MM.1S cells were also transduced with lentiviral construct for dCas9-VP64 (purchased from Addgene).
ii. Lentiviral transductions with sgRNA libraries: For the screen with the GECKOv2 sgRNA library, tumor cell transductions were performed in batches of 8×10^7 cells per sub-library for each replicate. Cells were incubated for 16 hrs in cell medium containing polybrene (2 μg/mL; Santa Cruz Biotechnology), 10 mM HEPES (pH 7.4) (Sigma-Aldrich) and viral prep (4 mL) diluted to achieve an MOI of 0.4. After the end of the incubation with the viral preps, cells were washed and incubated for an additional day. Transduced cells were cultured at an initial density of 1×10^6 cells/mL and were treated with puromycin (1 μg/mL) for up to 14 days immediately after transduction. After puromycin selection, MM.1S-Cas9^+ cells transduced with each GeCKOv2 sublibrary were plated at 60×10^6 cells per flask (T175, 100 mL) to enable coverage of ˜1000× and were sub-cultured at four to five-day intervals to prevent confluence. At each passage, cells were harvested, washed with PBS (Corning, N.Y.), pelleted (5000 rpm, 5 min, 4° C.) and frozen as cell pellets (−80° C.) for next generation sequencing, and also replated at 60×10^6 cells to maintain 1000× coverage.
For the genome-scale screens with the Brunello sgRNA library, tumor cell transductions were performed in batches of 5×10^7 cells per library for six replicates. Cells were incubated (18 h) in cell medium containing polybrene (5 μg/mL; Santa Cruz Biotechnology), 10 mM HEPES (pH 7.4) (Sigma-Aldrich) and viral prep (30 mL) diluted 1:1. Transduced cells were cultured at an initial density of 1×10^6 cells/mL and were treated with puromycin (1 μg/mL) for up to 5 days additional two days from transduction. After stable transduction, pooled MM.1S cells were plated at 40×10^6 cells per flask (T175, 100 mL) to enable coverage of 500× and were sub-cultured at three- to four day intervals to prevent confluence. At each passage, cells were harvested, washed with PBS (Corning), pelleted (5000 rpm, 5 min, 4° C.) and frozen as cell pellets (−80° C.) for next generation sequencing, and also replated at 40×10^6 cells (˜500× coverage).
as §1
For “long-term” treatment screens with Thal-SNS-032-, ARV-771- and MZ-1-resistant cells, we continuously treated MM.1S-Cas9+ cells (40×10^6, —500× coverage) transduced with the Brunello sgRNA library (4 weeks post-puromycin selection) with either each compound's (IC20) or vehicle control. Cells were serially passaged every 3-4 days to prevent confluence, each time replating at ˜500× coverage (100 mL) at the same time replenishing each compound or vehicle. Drug treatments were paused if cell numbers fell below 10×10^6 per flask, allowing cells to recover and regrow, and treatments were resumed at a lower concentration when cell numbers reached 40×10^6. At each passage, cells were assayed for drug sensitivity/resistance using CTG. […]

MM.1S Cas9+ cells = test: Dose-response assay of cells with individual sgRNA knock-outs, CTG; format: cell-based, human; settings: compared to parental MM.1S cells
Protocol: Non-targeting control sgRNAs and COPS7B sgRNAs were from GeCKOv2. Four sgRNAs were generated per each gene, except from COPS7B, for which 6 sgRNAs were available (Table S2). All sgRNAs were synthesized by CustomArray Inc (Bothell, Wash.). Cloning was performed according to the protocol published by Zhang et al. (media.addgene.org/cms/filer_public/4f/ab/4fabc269-56e2-4ba5-92bd-09dc89c1e862/zhang_lenticrisprv2_and_lentiguide_oligo_cloning_protocol_1.pdf) using a pHKO9 vector. Briefly, to clone the sgRNA guide sequence, plasmids were digested with BsmBI (New England Biolabs, Ipswich, Mass.) at 55° C. for 1 hour. Oligonucleotides for each sgRNA guide sequence were annealed and phosphorylated using T4 Ligation Buffer and T4 polynucleotide kinase (New England Biolabs) at 37° C. for 30 minutes and then annealed by heating to 95° C. for 5 minutes and cooling to 25° C. at 1.5° C./minute. Using T4 ligation buffer and T4 ligase (New England Biolabs), annealed oligos were ligated into gel purified vectors (Qiagen) at 65° C. for 10 minutes. 2.5 ug of the ligation product were transformed in 30 uL E. coli electrocompetent cells (Lucigen E.cloni 10 G ELITE PLUS, Invitrogen). Subsequently, 500 uL of transformed cells were plated on LB Agar-AmpR (ThermoFisher Scientific) and incubated overnight at 37° C. Three colonies per plate were then picked and inoculated in a mini-prep culture (Qiagen). The product was then digested with BsmBI and XhoI (New England Biolabs) at 37° C. for 1 h and compared to the uncut control on 1% agarose gel. One out of three colonies (10 uL) was then precultured in 3 mL LB Broth-AmpR and shaken at 37° C. for 6 h. Afterwards it was transferred to a 250 mL LB Broth-AmpR flask and incubated overnight at 37° C. Each culture was then inoculated into a maxiprep culture (Qiagen).
Also, CRBN, VHL, TCEBJ, TCEB2, UBE2R2 and FBXW2 sgRNA are selected from Brunello library and cloned using pLVX-hyg-sgRNA1 Vector system (Takara Bio USA, CA) according to the manufacturer's manual. b(takarabio.com/assets/documents/User %20Manual/Lenti-X_CRISPR-Cas9_System_User_Manual_121316.pdf)
ii. Lentiviral transductions with constructs for individual sgRNAs: 500×10^3 to 1×10^6 MM.1S Cas9 cells were plated in 50 uL of complete RPMI1640 medium per well in a 24-well plate, and additional 100 uL of complete RPMI1640 medium were added to cover the well completely. Cells were incubated in cell medium containing polybrene (5 to 8 μg/mL; Santa Cruz Biotechnology), and viral prep. 24 hours after addition of viral preps, media were changed and, after another 48 h, puromycin selection (1 to 2 ug/ml per well) was started. After 7 days of puromycin selection, transduced MM.1S Cas9+ cells were collected and expanded in T75 flasks.
iii. […] In the case of Thal-SNS-032 or ARV771, cells are plated 384-well plate and treated each concentration described at figure and viability assays were performed at 72 hrs.

pools of MM cells = test: Sequential exposure to CRBN- and VHL-based degraders, CTG; format: cell-based, human; settings: compared to treatment-naïve cells
Text: We addressed this question using pools of MM cells derived from several of our genome-scale CRISPR-based screens.

Structure (SMILES): Cc1sc2c(c1C)C(c1ccc(Cl)cc1)=N[C@@H](CC(=O)OC(C)(C)C)c1nnc(C)n1-2 [JQ1]
- responsiveness of drug-exposed pools to the same agent (MM.1S cells): decreased responsiveness
- induction of apoptosis (MM; most cell types tested): does not induce apoptosis in most cell types tested
- anti-tumor activity (MM; preclinical in vitro and in vivo models of MM): has anti-tumor activity
- c-Myc protein levels (c-Myc): less pronounced depletion of c-Myc

Structure (SMILES): Cc1ncsc1-c1ccc(CNC(=O)[C@@H]2C[C@@H](O)CN2C(=O)[C@@H](NC(=O)COCCOCCOCCNC(=O)C[C@@H]2N=C(c3ccc(Cl)cc3)c3c(sc(C)c3C)-n3c(C)nnc32)C(C)(C)C)cc1 [MZ-1]
- sgRNA enrichment in resistant cells, long-term screen (MM.1S-Cas9+ cells): enrichment of sgRNAs for CUL2, VHL itself
- response of cells with sgRNAs against COPS7B or COPS8 (MM.1S Cas9+ cells): decreased response
- shift of dose response curve in pools previously exposed to CRBN-based degraders (pools of MM cells): limited, if any, shift

Structure (SMILES): CC(C)C[C@H](NC(=O)[C@H](Cc1ccccc1)NC(=O)c1cnccn1)B(O)O [bortezomib]
- responsiveness of drug-exposed pools to the same agent (MM.1S cells): decreased responsiveness
